Laboratory results taken from US20230052017A1, “New compounds for treatment of diseases related to DUX4 expression” (Facio Intellectual Property B.V., priority 2019, published 2023).

What follows are compounds tested on DUX4 (assay: DUX4 repression assay in primary FSHD cells (protocol of Example 2 of WO2019/115711)). Settings: incubated 72 hours, reference compounds.
Assay type: cell-based, human
Source text: Following the central role of DUX4 in the consensus disease hypothesis for FSHD, a therapeutic approach with a disease-modifying potential is expected to rely on the inhibition of DUX4. The inventors have identified the compounds according to the invention as being able to achieve DUX4 repression in muscle cells. This invention has been made using primary FSHD patient-derived muscle cells. Because of the primate-specificity of the FSHD locus and questionable relevance of recombinant, immortalized, or tumorigenic cell or animal models to study endogenous DUX4 regulatory mechanisms, primary patient-derived muscle cells are the most relevant disease model. Assays based on immortalized cells bear the risk of altered epigenomes, thereby limiting their relevance in studying the endogenous regulation of DUX4 expression. Particularly the subtelomeric location of D4Z4 and the importance of the D4Z4 epigenome in the stability of DUX4 repression (Stadler et al., 2013, DOI: 10.1038/nsmb.2571) underscore the necessity of using primary muscle cells to discover physiologically relevant drug targets that regulate the expression of DUX4.
The DUX4 repression of compounds of general formula (I) was assayed following a known protocol (the protocol of Example 2 of WO2019/115711). Several compounds were incubated with primary FSHD cells for 72 hours. Results are shown in Table 4, showing DUX4 Count % inhibition.

Compared with `CN1CCN(C(=O)Cc2nn(C(C)(C)C)c(-c3ccc(F)cc3)c2-c2ccncc2)CC1` [Compound 106, 2-[1-tert-butyl-5-(4-fluorophenyl)-4-(pyridin-4-yl)-1H-pyrazol-3-yl]-1-(4-methylpiperazin-1-yl)ethan-1-one], `CN1CCN(C(=O)Cn2cnc(-c3ccc(F)cc3)c2-c2cccnc2)CC1` [Compound 107, 2-[4-(4-fluorophenyl)-5-(pyridin-3-yl)-1H-imidazol-1-yl]-1-(4-methylpiperazin-1-yl)ethan-1-one] is lower in “DUX4 count % inhibition” value: 17.3% for the first, 10.7% for the second.

For `O=C(Cn1cnc(-c2ccc(F)cc2)c1-c1cccnc1)N1CCNCC1` [Compound 108, 2-[4-(4-fluorophenyl)-5-(pyridin-3-yl)-1H-imidazol-1-yl]-1-(piperazin-1-yl)ethan-1-one], the “DUX4 count % inhibition” value was 6.6%.
